Reference: PMC8776995 (Frontiers in Chemistry, 2022)
Where “and” joins values, the source holds several entries; their conditions need not be identical. Equal entries are not always repeated. One block for each compound: values may come before it.

Tests used:
wild-type EGFR = wild-type EGFR (Homo sapiens, UniProt P00533); assay: EGFR kinase assay (ELISA); settings: for IC50: IC50 (μM) EGFR, ELISA, 3 μmol/L ATP; for A450: raw ELISA absorbance
A549 cells = assay: CCK-8 antiproliferation assay, A549; settings: for Inhibitory efficacy: A549 cells; for IC50: A549, 48 h, read-out: IC50 (μM) A549, CCK-8, 48 h, average ± SD of three independent experiments
H1975 cells = assay: CCK-8 antiproliferation assay, H1975; settings: for Inhibitory efficacy: H1975 cells; for IC50: NCI-H1975, 48 h, read-out: IC50 (μM) H1975, CCK-8, 48 h, average ± SD of three independent experiments
PC-9 cells = assay: CCK-8 antiproliferation assay, PC-9; settings: for IC50: PC-9, 48 h, read-out: IC50 (μM) PC-9; for inhibition at 16 µM: PC-9, read-out: Inhibitory efficacy, PC-9, 16uM, single repeats (Repeat 1-3), given as fraction; for Inhibitory efficacy: single repeats (Repeat 1-3), given as fraction
H460 cells = assay: CCK-8 antiproliferation assay, H460; settings: for Inhibitory efficacy: H460 cells; for IC50: NCI-H460, 48 h, read-out: IC50 (μM) H460, CCK-8, 48 h, average ± SD of three independent experiments
Description: The compounds were dissolved in DMSO to make a 20 μM stock solution and diluted to the concentration of working solutions with complete growth medium before administration.
Cells were seeded in 96-well plates: 3,000–5,000 cells/well in 100 ul. One day after seeding, the test compounds at concentration between 1.0 and 16.0 μ M or 0.1% DMSO (as control) were added to cells in triplicate. 48 h later, CCK-8 was added and incubated the plate for 1–4 h in the incubator. The absorbance at 450 nm were measured using a microplate reader (Bio-Tek).

[1] = concentration 0.03 nM, one value per replicate column
[2] = concentration 0.3 nM, one value per replicate column
[3] = concentration 0.3 nM, one value per replicate column, 0.0003 µM
[4] = concentration 3 nM, one value per replicate column
[5] = concentration 3 nM, one value per replicate column, 0.003 µM
[6] = concentration 30 nM, one value per replicate column
[7] = concentration 30 nM, one value per replicate column, 0.03 µM
[8] = concentration 300 nM, one value per replicate column
[9] = concentration 300 nM, one value per replicate column, 0.3 µM
[10] = concentration 3000 nM, one value per replicate column
[11] = concentration 3000 nM, one value per replicate column, 3 µM
[12] = concentration 30000 nM, one value per replicate column
[13] = concentration 30000 nM, one value per replicate column, 30 µM
[14] = 1uM, given as fraction, Repeat 1-3
[15] = 2uM, given as fraction, Repeat 1-3
[16] = 4uM, given as fraction, Repeat 1-3
[17] = 8uM, given as fraction, Repeat 1-3
[18] = 16uM, given as fraction, Repeat 1-3
[19] = Homo sapiens, A549, read-out: Inhibitory efficacy, A549 cells, 1uM, given as fraction, Repeat 1-3
[20] = Homo sapiens, A549, read-out: Inhibitory efficacy, A549 cells, 2uM, given as fraction, Repeat 1-3
[21] = Homo sapiens, A549, read-out: Inhibitory efficacy, A549 cells, 4uM, given as fraction, Repeat 1-3
[22] = Homo sapiens, A549, read-out: Inhibitory efficacy, A549 cells, 16uM, given as fraction, Repeat 1-3
[23] = Homo sapiens, NCI-H460, read-out: Inhibitory efficacy, H460 cells, 2uM, given as fraction, Repeat 1-3
[24] = Homo sapiens, NCI-H460, read-out: Inhibitory efficacy, H460 cells, 16uM, given as fraction, Repeat 1-3

Chain of wild-type EGFR (P00533 25-1210): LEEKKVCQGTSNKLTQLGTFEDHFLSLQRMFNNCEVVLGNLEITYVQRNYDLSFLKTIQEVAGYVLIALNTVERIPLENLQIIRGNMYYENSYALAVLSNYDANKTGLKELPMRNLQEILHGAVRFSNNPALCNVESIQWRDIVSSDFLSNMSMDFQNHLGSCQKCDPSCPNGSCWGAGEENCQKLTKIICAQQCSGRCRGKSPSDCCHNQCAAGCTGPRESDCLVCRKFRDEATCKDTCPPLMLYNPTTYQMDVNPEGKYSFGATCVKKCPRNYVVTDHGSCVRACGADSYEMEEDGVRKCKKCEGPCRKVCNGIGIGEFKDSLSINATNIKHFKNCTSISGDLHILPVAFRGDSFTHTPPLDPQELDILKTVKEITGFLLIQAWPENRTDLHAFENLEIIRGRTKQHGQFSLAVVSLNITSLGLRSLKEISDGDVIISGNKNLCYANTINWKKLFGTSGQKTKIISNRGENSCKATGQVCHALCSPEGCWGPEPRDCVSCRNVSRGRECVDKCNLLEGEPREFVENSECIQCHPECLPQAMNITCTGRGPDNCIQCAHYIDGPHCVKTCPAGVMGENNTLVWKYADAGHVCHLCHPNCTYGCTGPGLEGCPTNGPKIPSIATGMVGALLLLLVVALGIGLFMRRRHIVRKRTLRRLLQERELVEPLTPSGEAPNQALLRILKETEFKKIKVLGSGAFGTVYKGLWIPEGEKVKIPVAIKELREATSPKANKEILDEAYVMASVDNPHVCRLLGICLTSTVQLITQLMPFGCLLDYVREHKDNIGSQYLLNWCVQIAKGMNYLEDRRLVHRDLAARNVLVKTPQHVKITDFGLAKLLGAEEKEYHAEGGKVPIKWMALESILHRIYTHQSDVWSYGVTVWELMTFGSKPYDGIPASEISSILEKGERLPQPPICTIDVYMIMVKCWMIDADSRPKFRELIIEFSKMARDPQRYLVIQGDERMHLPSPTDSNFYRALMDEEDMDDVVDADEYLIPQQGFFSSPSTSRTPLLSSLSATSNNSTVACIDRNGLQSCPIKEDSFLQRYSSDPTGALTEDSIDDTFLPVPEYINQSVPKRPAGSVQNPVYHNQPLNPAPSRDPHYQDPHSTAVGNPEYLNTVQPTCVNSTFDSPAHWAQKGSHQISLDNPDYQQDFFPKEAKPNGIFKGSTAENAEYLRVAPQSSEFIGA

IC50 (wild-type EGFR): 2.13 µM
inhibition at 30 pM (wild-type EGFR; [1]): 4.76%
Inhibition (wild-type EGFR; concentration 0.03 nM, one value per replicate column, 3e-05 µM): 5.109
inhibition at 0.0003 µM (wild-type EGFR; [2]): 11.4%
Inhibition (wild-type EGFR; [3]): 10.9489
inhibition at 0.003 µM (wild-type EGFR; [4]): 15.7%
Inhibition (wild-type EGFR; [5]): 10.9489
inhibition at 0.03 µM (wild-type EGFR; [6]): 21.1%
Inhibition (wild-type EGFR; [7]): 11.3139
inhibition at 0.3 µM (wild-type EGFR; [8]): 36.5%
Inhibition (wild-type EGFR; [9]): 39.9635
inhibition at 3 µM (wild-type EGFR; [10]): 38.4%
Inhibition (wild-type EGFR; [11]): 48.1752
inhibition at 30 µM (wild-type EGFR; [12]): 78.1%
Inhibition (wild-type EGFR; [13]): 77.5547
A450 (wild-type EGFR; concentration 0.0001 nM): 0.787 and 0.697
A450 (wild-type EGFR; concentration 0.03 nM): 0.757 and 0.669
A450 (wild-type EGFR; concentration 0.3 nM): 0.715 and 0.637
A450 (wild-type EGFR; concentration 3 nM): 0.688 and 0.637
A450 (wild-type EGFR; concentration 30 nM): 0.654 and 0.635
A450 (wild-type EGFR; concentration 300 nM): 0.557 and 0.478
A450 (wild-type EGFR; concentration 3000 nM): 0.545 and 0.433
A450 (wild-type EGFR; concentration 30000 nM): 0.295 and 0.272
IC50 (A549 cells; Homo sapiens): 3.77 ± 0.68 µM
IC50 (H1975 cells; Homo sapiens): 6.36 ± 4.21 µM
melting point: 105 to 108 °C
IC50 (PC-9 cells; Homo sapiens): > 100 µM
IC50 (H460 cells; Homo sapiens): 15 ± 2.1 µM
SMILES: COCCOc1cc2ncnc(Nc3cccc(-c4cn(-c5ccc(Br)cc5)nn4)c3)c2cc1OCCOC [e10, [6,7-Bis-(2-methoxy-ethoxy)-quinazolin-4-yl]-{3-[1-(4-bromo-phenyl)-1H-[1,2,3]triazol-4-yl]-phenyl}-amine]
Inhibitory efficacy (A549 cells; [14]): 0.3506 and 0.4374
Inhibitory efficacy (A549 cells; [15]): 0.4836 and 0.5124
Inhibitory efficacy (A549 cells; [16]): 0.5136 and 0.5055
Inhibitory efficacy (A549 cells; [17]): 0.5695 and 0.5326
Inhibitory efficacy (A549 cells; [18]): 0.5501 and 0.5711
inhibition at 1 µM (A549 cells; [19]): 35.9%
inhibition at 2 µM (A549 cells; [20]): 51.4%
inhibition at 4 µM (A549 cells; [21]): 50.2%
inhibition at 8 µM (A549 cells; Homo sapiens, A549, read-out: Inhibitory efficacy, A549 cells, 8uM, given as fraction, Repeat 1-3): 55.8%
inhibition at 16 µM (A549 cells; [22]): 59%
Inhibitory efficacy (H1975 cells; [14]): 0.3092 and 0.3364
Inhibitory efficacy (H1975 cells; [15]): 0.3838 and 0.3364
Inhibitory efficacy (H1975 cells; [16]): 0.4598 and 0.4892
Inhibitory efficacy (H1975 cells; [17]): 0.5696 and 0.4885
Inhibitory efficacy (H1975 cells; [18]): 0.5545 and 0.4835
inhibition at 1 µM (H1975 cells; Homo sapiens, NCI-H1975, read-out: Inhibitory efficacy, H1975 cells, 1uM, given as fraction, Repeat 1-3): 39.4%
inhibition at 2 µM (H1975 cells; Homo sapiens, NCI-H1975, read-out: Inhibitory efficacy, H1975 cells, 2uM, given as fraction, Repeat 1-3): 33.8%
inhibition at 4 µM (H1975 cells; Homo sapiens, NCI-H1975, read-out: Inhibitory efficacy, H1975 cells, 4uM, given as fraction, Repeat 1-3): 51.4%
inhibition at 8 µM (H1975 cells; Homo sapiens, NCI-H1975, read-out: Inhibitory efficacy, H1975 cells, 8uM, given as fraction, Repeat 1-3): 54.1%
inhibition at 16 µM (H1975 cells; Homo sapiens, NCI-H1975, read-out: Inhibitory efficacy, H1975 cells, 16uM, given as fraction, Repeat 1-3): 67.4%
inhibition at 4 µM (PC-9 cells; Homo sapiens, PC-9, read-out: Inhibitory efficacy, PC-9, 4uM, single repeats (Repeat 1-3), given as fraction): 11.7%
inhibition at 16 µM (PC-9 cells; Homo sapiens): 13.3%
Inhibitory efficacy (PC-9 cells; PC-9, 4uM, 4 µM): 0.1333 and 0.0912
Inhibitory efficacy (PC-9 cells; PC-9, 16uM, 16 µM): 0.1218 and 0.1916
Inhibitory efficacy (H460 cells; [15]): 0.07707 and 0.09653
Inhibitory efficacy (H460 cells; [17]): 0.3228 and 0.2533
Inhibitory efficacy (H460 cells; [18]): 0.4853 and 0.4952
inhibition at 2 µM (H460 cells; [23]): 6.52%
inhibition at 8 µM (H460 cells; Homo sapiens, NCI-H460, read-out: Inhibitory efficacy, H460 cells, 8uM, given as fraction, Repeat 1-3): 25.3%
inhibition at 16 µM (H460 cells; [24]): 60.6%

IC50 (wild-type EGFR): 28.1 µM
inhibition at 100 fM (wild-type EGFR; concentration 0.0001 nM (reference for normalisation), one value per replicate column): 0%
inhibition at 30 pM (wild-type EGFR; [1]): 0%
inhibition at 0.0003 µM (wild-type EGFR; [2]): 1.06%
Inhibition (wild-type EGFR; [3]): 0.9259
inhibition at 0.003 µM (wild-type EGFR; [4]): 2.12%
Inhibition (wild-type EGFR; [5]): 3.333
inhibition at 0.03 µM (wild-type EGFR; [6]): 6.35%
Inhibition (wild-type EGFR; [7]): 7.222
inhibition at 0.3 µM (wild-type EGFR; [8]): 6.7%
Inhibition (wild-type EGFR; [9]): 10.3704
inhibition at 3 µM (wild-type EGFR; [10]): 8.29%
Inhibition (wild-type EGFR; [11]): 15.5556
inhibition at 30 µM (wild-type EGFR; [12]): 52.7%
Inhibition (wild-type EGFR; [13]): 51.6667
A450 (wild-type EGFR; concentration 0.0001 nM): 0.772 and 0.745
A450 (wild-type EGFR; concentration 0.03 nM): 0.772 and 0.745
A450 (wild-type EGFR; concentration 0.3 nM): 0.766 and 0.74
A450 (wild-type EGFR; concentration 3 nM): 0.76 and 0.727
A450 (wild-type EGFR; concentration 30 nM): 0.736 and 0.706
A450 (wild-type EGFR; concentration 300 nM): 0.734 and 0.689
A450 (wild-type EGFR; concentration 3000 nM): 0.725 and 0.661
A450 (wild-type EGFR; concentration 30000 nM): 0.473 and 0.466
IC50 (A549 cells; Homo sapiens): > 100 µM
IC50 (H1975 cells; Homo sapiens): > 100 µM
melting point: 106 to 109 °C
IC50 (PC-9 cells; Homo sapiens): 23.5 ± 10.2 µM
IC50 (H460 cells; Homo sapiens): > 100 µM
SMILES: COCCOc1cc2ncnc(Nc3cccc(-c4cn(-c5ccc(OC)c(OC)c5)nn4)c3)c2cc1OCCOC [e19, N-(3-(1-(3,4-dimethoxyphenyl)-1H-1,2,3-triazol-4-yl)phenyl)-6,7-bis(2-methoxyethoxy)quinazolin-4-amine]
Inhibitory efficacy (A549 cells; [14]): 0.1948 and 0.1677
Inhibitory efficacy (A549 cells; [15]): 0.2727 and 0.2237
Inhibitory efficacy (A549 cells; [16]): 0.2792 and 0.2418
Inhibitory efficacy (A549 cells; [18]): 0.2527 and 0.2605
inhibition at 1 µM (A549 cells; [19]): 21.2%
inhibition at 2 µM (A549 cells; [20]): 23.7%
inhibition at 4 µM (A549 cells; [21]): 19.7%
inhibition at 16 µM (A549 cells; [22]): 26.2%
inhibition at 1 µM (PC-9 cells; Homo sapiens, PC-9, read-out: Inhibitory efficacy, PC-9, 1uM, single repeats (Repeat 1-3), given as fraction): 21.9%
inhibition at 2 µM (PC-9 cells; Homo sapiens, PC-9, read-out: Inhibitory efficacy, PC-9, 2uM, single repeats (Repeat 1-3), given as fraction): 32.9%
inhibition at 8 µM (PC-9 cells; Homo sapiens, PC-9, read-out: Inhibitory efficacy, PC-9, 8uM, single repeats (Repeat 1-3), given as fraction): 35.7%
inhibition at 16 µM (PC-9 cells; Homo sapiens): 49.7%
Inhibitory efficacy (PC-9 cells; PC-9, 1uM, 1 µM): 0.1694 and 0.3158
Inhibitory efficacy (PC-9 cells; PC-9, 2uM, 2 µM): 0.2911 and 0.3553
Inhibitory efficacy (PC-9 cells; PC-9, 4uM, 4 µM): 0.4984 and 0.2516 and 0.3668
Inhibitory efficacy (PC-9 cells; PC-9, 8uM, 8 µM): 0.4737 and 0.4424
Inhibitory efficacy (PC-9 cells; PC-9, 16uM, 16 µM): 0.4062 and 0.4457
Inhibitory efficacy (H460 cells; [15]): 0.2578 and 0.3115
Inhibitory efficacy (H460 cells; [18]): 0.424 and 0.3358
inhibition at 2 µM (H460 cells; [23]): 32.2%
inhibition at 16 µM (H460 cells; [24]): 33.1%
